Source: paper PMC11267572, “A Repurposed Drug Interferes with Nucleic Acid to Inhibit the Dual Activities of Coronavirus Nsp13” (ACS Chemical Biology, 2024)
“Also recorded” adds a separate entry of the source. Like-named read-outs stand apart in the source and are kept apart here.

Legend:
[1] = biological target: Nsp13; conditions: cited from earlier work
[2] = biological target: T1, SARS-CoV-2 Nsp13 (Severe acute respiratory syndrome coronavirus 2, UniProt P0DTD1); assay: biochemical; conditions: for inhibition at 50 µM: read-out: inhibition of helicase activity
T1 construct: its nonstructural protein 13 (Nsp13) remains a clinically untapped target; His6-Zb-TEV (N, cleaved yes); host or cells: E. coli BL21 (DE3)

[3] = test system: Vero E6, Vero ACE2-TMPRSS2 and A549 ACE2 cells; conditions: t = 22 hr
[4] = biological target: T1, SARS-CoV-2 Nsp13; assay type: binding; conditions: duplex-FL 100 nM, Nsp13 1 μM
[5] = biological target: T2, Hepatitis C Virus (HCV) RNA helicase NS3 (Hepatitis C virus genotype 1b, UniProt Q9WMX2); assay type: biochemical
T2 construct: A truncated form of the Hepatitis C NS3 helicase protein; His-SUMO (N, cleaved yes); made in house; host or cells: E. coli BL21 (DE3) per the methods text

[6] = test system: duplex-FL (labeled duplex DNA); assay type: binding; conditions: duplex-FL 100 nM, 10% DMSO, no protein
[7] = test system: Tte UvrD helicase; assay type: biochemical; conditions: 3.02 nM UvrD, 1 mM ATP, 65 °C, increasing concentrations
[8] = test system: Chinese hamster ovary (CHO) cells expressing CFTR or colon carcinoma cells; conditions: cited from earlier work
[9] = biological target: T1, SARS-CoV-2 Nsp13; assay type: biochemical
[10] = biological target: T1, SARS-CoV-2 Nsp13; assay type: biochemical; remark: listed apart in the source
[11] = test system: SARS-CoV-2; set-up: method as in PMID 35456026; conditions: micromolar concentrations, CFTR-expressing cells; cited from earlier work
[12] = biological target: T1, SARS-CoV-2 Nsp13; assay: biochemical; conditions: for first-round screen, inhibition of Nsp13 ATPase activity (considered active): no detergent, t = 5 min, compound equimolar to ATP

T2 sequence (Q9WMX2 1193-1657): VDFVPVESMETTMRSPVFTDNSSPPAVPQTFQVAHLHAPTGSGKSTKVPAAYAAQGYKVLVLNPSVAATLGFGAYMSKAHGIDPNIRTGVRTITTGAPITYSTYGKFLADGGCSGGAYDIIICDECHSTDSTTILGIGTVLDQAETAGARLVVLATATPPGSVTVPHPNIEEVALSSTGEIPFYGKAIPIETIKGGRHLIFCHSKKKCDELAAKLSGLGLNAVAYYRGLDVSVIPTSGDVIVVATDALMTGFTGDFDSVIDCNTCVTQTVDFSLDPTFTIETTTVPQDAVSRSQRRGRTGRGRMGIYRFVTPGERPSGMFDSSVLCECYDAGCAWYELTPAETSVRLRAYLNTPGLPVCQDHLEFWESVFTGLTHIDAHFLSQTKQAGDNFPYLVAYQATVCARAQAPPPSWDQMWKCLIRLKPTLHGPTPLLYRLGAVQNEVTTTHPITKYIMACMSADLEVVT

O=C1O[C@H]2[C@@H]3OC(=O)c4cc(O)c(O)c(O)c4-c4c(O)c(O)c5oc(=O)c6c(c(O)c(O)c7oc(=O)c4c5c76)-c4c(cc(O)c(O)c4O)C(=O)OC[C@H]3OC(O)[C@@H]2OC(=O)c2cc(O)c(O)c(O)c2-c2c1cc(O)c(O)c2O (mixture of isomers) [punicalagin]
Kd [1]: ~0.02 µM

O=C(NCc1ccc(Cn2cc(Cl)cn2)cc1)c1nc(-c2ccc(C(F)(F)F)cc2)no1 [Analog 1]
IC50 [2]: 131 ± 53 µM
fold higher helicase IC50 than IOWH-032 ([2]; 3.12 nM Nsp13, 0.01% Tween-20): > 10 fold
inhibition at 50 µM [2]: > 25%

Cc1ccc(-c2cc(C(=O)NCc3ccc(Oc4ccccc4)cc3)no2)cc1C [Analog 2]
toxicity against infection cell lines ([3]; up to 20 µM): did not show toxicity
inhibition of helicase activity ([2]; 50 μM analog, 3.12 nM Nsp13, 0.01% Tween-20): no inhibition
displacement of duplex-FL probe [4]: no displacement of probe

Cc1ccc(COc2c(Br)cc(CNc3ccc(Oc4ccccc4)cc3)cc2Br)cc1 [Analog 5]
inhibition at 50 µM [2]: < 25%

O=C(Cn1cccc1-c1nc(-c2ccc(F)c(Br)c2)no1)NCc1ccc(F)cc1 [Analog 6]
inhibition at 50 µM [2]: < 25%

O=C(NCc1ccc(Oc2ccccc2)cc1)c1nc(-c2cc(Br)c(O)c(Br)c2)no1 [IOWH-032]
concentration above which NS3 ATPase activity decreases ([5]; 250 nM NS3, 250 μM ATP): exceed 100 µM
sensitivity of NS3 ATPase activity ([5]; mid-micromolar concentrations of compound): nearly insensitive
reduction in cell viability ([3]; 4 μM, across all mammalian cell lines tested): ~50%
interaction with duplex-FL probe alone [6]: does not interact with probe alone; also recorded: no direct interaction
effect on UvrD ATPase activity (ATP consumption) [7]: is not affected; also recorded: still demonstrated ATPase activity
toxicity [8]: not toxic
mode of ATPase inhibition with respect to ATP [9]: uncompetitive
mode of helicase inhibition with respect to nucleic acid substrate [10]: mixed inhibition
reduction of SARS-CoV-2 viral loads compared to untreated cells [11]: > 2 log10

C=CCn1c(CSc2ccccc2[N+](=O)[O-])n[nH]c1=S [SSYA10-001]
inhibition of helicase activity [2]: inhibited

C[C@H](NC(=O)Cc1cc(F)cc(F)c1)C(=O)N[C@@H]1C(=O)N(C)c2ccccc2-c2ccccc21 [dibenzazepine]
ATPase inhibition on titration in the presence of detergent ([12]; Tween-20, up to high micromolar concentrations): no inhibition
first-round screen, inhibition of Nsp13 ATPase activity (considered active) [12]: active

CNC(=O)c1cc(COc2nnc(Nc3ccc(Cl)cc3)c3ccoc23)ccn1 [telatinib]
IC50 ([12]; 25 nM Nsp13, 0.01% Tween-20, read-out: ATPase inhibition IC50): ~114 µM
first-round screen, inhibition of Nsp13 ATPase activity (considered active) [12]: active
IC50 [2]: 20.4 ± 1.5 µM
